Target: Carbonic anhydrase 1 (Homo sapiens, UniProt P00915)
Sequence (P00915 whole entry): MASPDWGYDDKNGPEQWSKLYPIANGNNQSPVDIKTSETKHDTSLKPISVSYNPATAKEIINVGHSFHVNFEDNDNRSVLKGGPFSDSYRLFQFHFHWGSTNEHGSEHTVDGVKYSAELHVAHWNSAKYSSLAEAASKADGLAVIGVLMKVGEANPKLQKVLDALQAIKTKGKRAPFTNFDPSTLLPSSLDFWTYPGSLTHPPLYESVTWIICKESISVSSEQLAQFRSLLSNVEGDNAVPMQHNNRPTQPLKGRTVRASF

Question: How did the Ki turn out when `O=[Se](=O)(O)O` [SODIUM SELENATE] was run?
Answer: 570 µM
